Measurements: US5736629A, “Herbicide resistant rice” (priority 1997, dated 1998)

How the values were obtained:
[1] = target: T1, AHAS (acetohydroxyacid synthase) in enzyme extracts from normal rice variety Lemont (Oryza sativa subsp. japonica, UniProt Q6K2E8); test: AHAS enzyme assay, extract from rice variety Lemont; format: biochemical
T1 construct: 40.0 grams (fresh weight) of tissue were extracted in the same manner for each of the three varieties; from tissue; host or cells: stem tissue of greenhouse-grown rice seedlings, variety Lemont (leaf blades removed)
T1 sequence (Q6K2E8 40-644 limits assumed): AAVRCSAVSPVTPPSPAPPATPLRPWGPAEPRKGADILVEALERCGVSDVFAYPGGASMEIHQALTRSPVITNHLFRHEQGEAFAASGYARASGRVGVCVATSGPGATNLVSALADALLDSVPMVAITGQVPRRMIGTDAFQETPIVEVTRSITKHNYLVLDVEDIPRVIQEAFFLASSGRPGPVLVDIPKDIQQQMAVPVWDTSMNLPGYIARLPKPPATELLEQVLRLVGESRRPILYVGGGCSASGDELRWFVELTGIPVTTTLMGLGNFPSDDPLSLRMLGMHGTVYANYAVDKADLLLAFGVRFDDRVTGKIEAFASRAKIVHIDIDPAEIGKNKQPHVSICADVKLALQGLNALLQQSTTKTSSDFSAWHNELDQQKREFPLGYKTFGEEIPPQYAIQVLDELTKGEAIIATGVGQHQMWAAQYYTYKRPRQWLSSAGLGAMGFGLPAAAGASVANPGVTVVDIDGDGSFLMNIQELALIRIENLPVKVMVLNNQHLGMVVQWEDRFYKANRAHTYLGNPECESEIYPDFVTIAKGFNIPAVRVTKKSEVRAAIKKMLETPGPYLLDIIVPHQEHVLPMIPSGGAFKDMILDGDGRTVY
Excerpt: The herbicide resistance of the AHAS enzyme from the ATCC 75295 rice line was compared to the resistance of the AHAS enzymes from the rice varieties "Lemont" and "Mercury," the varieties that were the ancestors of this rice line. The procedures used to assay the activity of acetohydroxyacid synthase were substantially as described in B. K. Singh et al., "Assay of Acetohydroxyacid Synthase," Analytical Biochemistry, vol. 171, pp. 173-179 (1988), except as noted. In the first paragraph of Singh's "Materials and Methods," instead of corn suspension culture cells, stem tissues from greenhouse-grown rice seedlings at the four-leaf stage of development were used. Leaf blades were removed, and 40.0 grams (fresh weight) of tissue were extracted in the same manner for each of the three varieties. […] Pursuit herbicide (imazethapyr) was included in the "standard reaction mixture" for the AHAS assay in the concentrations indicated in Table 1 below. Checks were made of direct acetoin formation during the enzyme assay. Each treatment was conducted with two replicates.

[2] = system: rice line ATCC 75295 (first resistance mechanism only); test: Greenhouse test of plant vigor after imazethapyr, ATCC 75295; format: in vivo; conditions: for Rating of rice plant vigor: 36 days after treatment at 2-3 leaf stage, 10-point scale, 0 = dead plant, 10 = no visible injury
Excerpt: In the greenhouse tests, pots were planted with F3 seed from crosses between the two lines. Each pot was planted with seed from a single panicle from a single plant; each pot was therefore the equivalent of a headrow. A total of 140 pots were planted in this manner, along with 40 pots of various non-resistant genotypes for comparison. Imazethapyr was applied at the 2-3 leaf stage two weeks after planting, at rates equivalent to 0.063 lb. active ingredient (a.i.) per acre, 0.125 lb. a.i./acre, and 0.313 lb. a.i./acre.
Table 2 summarizes measurements taken 36 days after spraying rice at the 2-3 leaf stage of development.

[3] = system: other anther-culture progeny rows of Mercury//Lemont/Mercury rice; test: Open-field spray screen of anther-culture progeny rows, all other rows; format: in vivo
Method: This resistant line was derived by conducting anther culture on the F2 progeny of a backcross made by pollinating a rice plant of the variety "Lemont" with pollen from the rice variety "Mercury," followed by a backcross using pollen from this hybrid to pollinate a plant of the variety "Mercury." The resulting backcross is described as Mercury//Lemont/Mercury. Anthers collected from a plant resulting from this backcross were plated on callus induction medium, and the resulting calli were transferred to plant regeneration media. The procedures used were generally as described in Croughan and Chu, "Rice (Oryza saliva L.): Establishment of Callus Cultures and the Regeneration of Plants" in Bajaj (Ed.), "Biotechnology in Agriculture and Forestry," pp. 19-37 (1991). Several regenerated plants were produced and grown to maturity in a greenhouse to produce seed. Progeny seed were planted in an open field, and herbicide applications were made using a garden tractor-mounted spray rig.
A set of 4,193 progeny rows derived from this anther culture procedure were planted in an open field, and were sprayed with 4 ounces per acre of Pursuit (1.00 ounce active ingredient imazethapyr per acre) at the four-leaf stage of seedling development. […]

[4] = system: ATCC 75295 rice line; test: Field plot test with AHAS-inhibiting herbicides, ATCC 75295; format: in vivo
Method: The resistance of these plants to several other AHAS-inhibiting herbicides was also tested. Nine-foot-long field plots were planted with seven rows of rice per plot. The test included nine check rice varieties, and the ATCC 75295 rice line. A shielded spray boom was used to apply herbicide, spraying six of the seven rows in each plot. The four herbicides used were Pursuit (imazethapyr: (±)-2-[4,5-dihydro-4-methyl-4-(1-methylethyl)-5-oxo-1H-imidazol-2-yl]-5-ethyl-3-pyridinecarboxylic acid); Scepter (imazaquin: 2-[4,5-dihydro-4-methyl-4-(1-methylethyl)-5-oxo-1H-imidazol-2-yl]-3-quinolinecarboxylic acid); Accent (nicosulfuron: 2-(((((4,6-dimethoxypyrimidin-2-yl)aminocarbonyl)) aminosulfonyl))-N,N-dimethyl-3-pyridinecarboxamide); and Beacon (primisulfuron: 3-[4,6-bis(difluoromethoxy)-pyrimidin-2-yl]-1-(2-methoxycarbonylphenylsulfonyl)urea). The herbicides were applied to two replicate plots for each herbicide when the rice was at the three-leaf stage of maturity. Two replicate plots of each check variety and of the resistant line were left unsprayed as controls. The Accent treatment used 0.67 ounce of product (0.50 ounce active ingredient) per acre, with 0.25% nonionic surfactant. The Pursuit treatment used four ounces of product (1.00 ounce active ingredient) per acre, with 0.25% nonionic surfactant. The Scepter treatment used one pint of product (3.00 ounces active ingredient) per acre, with 0.25% nonionic surfactant. The Beacon treatment used 0.76 ounce of product (0.57 ounce active ingredient) per acre, with 0.25% nonionic surfactant. […] A similar test with the same rice varieties and the ATCC 75295 line was conducted at the five-leaf stage of development (i.e., plants fifteen days older than in the test described above), using Accent and Pursuit at the rates given above. […] The ATCC 75295 line was resistant only when herbicide was applied post-emergence.

## CCc1cnc(C2=NC(C)(C(C)C)C(=O)N2)c(C(=O)O)c1 (racemic) [imazethapyr, (±)-2-[4,5-dihydro-4-methyl-4-(1-methylethyl)-5-oxo-1H-imidazol-2-yl]-5-ethyl-3-pyridinecarboxylic acid]
[1]; imazethapyr 0.1 μM
  activity at 0.1 µM: 102%
[1]; imazethapyr 1 μM
  activity at 1 µM: 102%
[1]; imazethapyr 10 μM
  activity at 10 µM: 87%
[1]; imazethapyr 100 μM
  activity at 100 µM: 81%
[2]; 0.063 lb. a.i./acre
  Rating of rice plant vigor: 0.61 ± 0.03
[2]; 0.125 lb. a.i./acre
  Rating of rice plant vigor: 0.81 ± 0.45
[2]; 0.313 lb. a.i./acre
  Rating of rice plant vigor: about 0.6
[2]; 0.313 lb. a.i./acre, listed as Imazethapyr
  Rating of rice plant vigor: 0.55 ± 0.55
[2]; ATCC 75295 plants, greenhouse test
  Time to visible resumption of growth after herbicide application: about three weeks
[2]; plants with only the first resistance mechanism, 0.313 lb a.i./acre, 36 days after treatment
  Visible injury (in words): substantial injury
[3]; 4 ounces per acre Pursuit (1.00 ounce a.i. per acre), four-leaf stage, open field
  Symptoms (in words): injured or killed
[3]; second spray 8 ounces/acre Pursuit (2.00 ounce a.i. per acre), four weeks after the initial treatment, rows that survived the initial spraying
  Symptoms (in words): lethal
[4]; five-leaf stage (plants fifteen days older), same rates as in the three-leaf test
  Resistance of the rice line (in words): good resistance
[4]; three-leaf stage, per acre a.i.: Accent 0.50 ounce, Pursuit 1.00 ounce, Scepter 3.00 ounces, Beacon 0.57 ounce, 0.25% nonionic surfactant
  Resistance of the rice line (in words): good resistance
